Measurements as given in patent US5672715A, “Herbicidal substituted 3-aryl-pyrazoles” (Monsanto Company, priority 1995, dated 1997).
Like-named read-outs stand apart in the source and are kept apart here.

How the values were obtained:
Type in all cases: in vivo
Yellow Foxtail [1] = experiment: post-emergence herbicide test; details: Setaria, read-out: % plant inhibition
Procedure, shortened: (§1)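 Plants were raised from seed in topsoil pans in the greenhouse and treated post-emergence at two to three weeks of age. Candidate chemical was applied in spray solution or suspension containing about 0.4% emulsifier at 1870 L/Ha. Activity recorded as percent inhibition.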

Velvetleaf [2] = experiment: post-emergence herbicide test; details: Abutilon theophrasti, post-emergence, read-out: % plant inhibition
Procedure, shortened: as §1

Blackgrass = experiment: post-emergence herbicide test; details: Alopecurus myosuroides, post-emergence, read-out: % plant inhibition; for inhibition at 7.95803 g/ha: 0.0071 lb/A; for inhibition at 40.0143 g/ha: 0.0357 lb/A; for inhibition at 200.072 g/ha: 0.1785 lb/A; for inhibition at 1000.92 g/ha: 0.893 lb/A
Procedure, shortened: as §1

Common Chickweed = experiment: post-emergence herbicide test; details: post-emergence, read-out: % plant inhibition
Procedure, shortened: as §1

Barnyardgrass [3] = experiment: post-emergence herbicide test; details: Echinochloa crus-galli, post-emergence, read-out: % plant inhibition
Procedure, shortened: as §1

Soybean [4] = experiment: post-emergence herbicide test; details: Glycine max, post-emergence, read-out: % plant inhibition
Procedure, shortened: as §1

Morning Glory [5] = experiment: post-emergence herbicide test; details: Ipomoea, post-emergence, read-out: % plant inhibition
Procedure, shortened: as §1

Yellow Foxtail [6] = experiment: pre-emergence herbicide test; details: Setaria, read-out: % plant inhibition
Procedure, shortened: (§2)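 Seeds were sown on compacted topsoil in pans and covered with a topsoil layer carrying a known amount of active ingredient in acetone or water, applied before or after covering. Pans were bottom-watered on a greenhouse bench, and % inhibition was scored about 14 days after seeding and treatment.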

Velvetleaf [7] = experiment: pre-emergence herbicide test; details: Abutilon theophrasti, pre-emergence, read-out: % plant inhibition
Procedure, shortened: as §2

Corn = experiment: pre-emergence herbicide test; details: Zea mays, pre-emergence, read-out: % plant inhibition
Procedure, shortened: as §2

Yellow Nutsedge = experiment: pre-emergence herbicide test; details: Cyperus, read-out: % plant inhibition
Procedure, shortened: as §2

Cocklebur = experiment: pre-emergence herbicide test; details: Xanthium strumarium, pre-emergence, read-out: % plant inhibition
Procedure, shortened: as §2

Barnyardgrass [8] = experiment: pre-emergence herbicide test; details: Echinochloa crus-galli, pre-emergence, read-out: % plant inhibition
Procedure, shortened: as §2

Soybean [9] = experiment: pre-emergence herbicide test; details: Glycine max, pre-emergence, read-out: % plant inhibition
Procedure, shortened: as §2

Morning Glory [10] = experiment: pre-emergence herbicide test; details: Ipomoea, pre-emergence, read-out: % plant inhibition
Procedure, shortened: as §2

Rice = experiment: pre-emergence herbicide test; details: Oryza sativa, read-out: % plant inhibition
Procedure, shortened: as §2

COc1cc(-c2nn(C)c(C(F)(F)F)c2C)c(F)cc1[N+](=O)[O-] [Compound 36]
45%: inhibition at 200.072 g/ha (Yellow Foxtail [1]; 0.1785 lb/A) | inhibition at 200.072 g/ha (Barnyardgrass [3]; 0.1785 lb/A) | inhibition at 1000.92 g/ha (Soybean [4]; 0.893 lb/A)
85%: inhibition at 7.95803 g/ha (Common Chickweed; 0.0071 lb/A) | inhibition at 200.072 g/ha (Morning Glory [5]; 0.1785 lb/A) | inhibition at 1000.92 g/ha (Cocklebur; 0.893 lb/A)
75%: inhibition at 200.072 g/ha (Velvetleaf [2]; 0.1785 lb/A)
10%: inhibition at 40.0143 g/ha (Yellow Foxtail [1]; 0.0357 lb/A) | inhibition at 40.0143 g/ha (Blackgrass; Table 5a) | inhibition at 40.0143 g/ha (Corn; 0.0357 lb/A) | inhibition at 1000.92 g/ha (Soybean [9]; 0.893 lb/A) | inhibition at 40.0143 g/ha (Morning Glory [10]; 0.0357 lb/A)
98%: inhibition at 200.072 g/ha (Yellow Foxtail [6]; 0.1785 lb/A) | inhibition at 200.072 g/ha (Velvetleaf [7]; 0.1785 lb/A)
55%: inhibition at 200.072 g/ha (Corn; 0.1785 lb/A)
20%: inhibition at 7.95803 g/ha (Morning Glory [5]; 0.0071 lb/A) | inhibition at 7.95803 g/ha (Velvetleaf [7]; 0.0071 lb/A) | inhibition at 40.0143 g/ha (Velvetleaf [7]; 0.0357 lb/A) | inhibition at 40.0143 g/ha (Cocklebur; 0.0357 lb/A) | inhibition at 40.0143 g/ha (Barnyardgrass [8]; 0.0357 lb/A)
60%: inhibition at 1000.92 g/ha (Blackgrass; Table 5a) | inhibition at 200.072 g/ha (Morning Glory [10]; 0.1785 lb/A)
35%: inhibition at 200.072 g/ha (Common Chickweed; 0.1785 lb/A) | inhibition at 200.072 g/ha (Soybean [4]; 0.1785 lb/A)
100%: inhibition at 1000.92 g/ha (Velvetleaf [2]; 0.893 lb/A) | inhibition at 1000.92 g/ha (Morning Glory [5]; 0.893 lb/A) | inhibition at 1000.92 g/ha (Yellow Foxtail [6]; 0.893 lb/A) | inhibition at 1000.92 g/ha (Velvetleaf [7]; 0.893 lb/A) | inhibition at 1000.92 g/ha (Barnyardgrass [8]; 0.893 lb/A)
90%: inhibition at 1000.92 g/ha (Corn; 0.893 lb/A) | inhibition at 200.072 g/ha (Barnyardgrass [8]; 0.1785 lb/A) | inhibition at 1000.92 g/ha (Morning Glory [10]; 0.893 lb/A)
50%: inhibition at 1000.92 g/ha (Barnyardgrass [3]; 0.893 lb/A)
70%: inhibition at 1000.92 g/ha (Yellow Foxtail [1]; 0.893 lb/A) | inhibition at 40.0143 g/ha (Velvetleaf [2]; 0.0357 lb/A)
15%: inhibition at 40.0143 g/ha (Common Chickweed; 0.0357 lb/A) | inhibition at 7.95803 g/ha (Soybean [4]; 0.0071 lb/A) | inhibition at 40.0143 g/ha (Yellow Foxtail [6]; 0.0357 lb/A)
65%: inhibition at 7.95803 g/ha (Velvetleaf [2]; 0.0071 lb/A) | inhibition at 1000.92 g/ha (Common Chickweed; 0.893 lb/A) | inhibition at 1000.92 g/ha (Rice; 0.893 lb/A)
40%: inhibition at 40.0143 g/ha (Morning Glory [5]; 0.0357 lb/A)
0%: inhibition at 7.95803 g/ha (Yellow Foxtail [1]; 0.0071 lb/A) | inhibition at 7.95803 g/ha (Blackgrass; Table 4a) | inhibition at 7.95803 g/ha (Blackgrass; Table 5a) | inhibition at 40.0143 g/ha (Blackgrass; Table 4a) | inhibition at 200.072 g/ha (Blackgrass; Table 4a) | inhibition at 1000.92 g/ha (Blackgrass; Table 4a) | inhibition at 7.95803 g/ha (Barnyardgrass [3]; 0.0071 lb/A) | inhibition at 40.0143 g/ha (Barnyardgrass [3]; 0.0357 lb/A) | inhibition at 7.95803 g/ha (Yellow Foxtail [6]; 0.0071 lb/A) | inhibition at 7.95803 g/ha (Corn; 0.0071 lb/A) | inhibition at 7.95803 g/ha (Yellow Nutsedge; 0.0071 lb/A) | inhibition at 40.0143 g/ha (Yellow Nutsedge; 0.0357 lb/A) | inhibition at 200.072 g/ha (Yellow Nutsedge; 0.1785 lb/A) | inhibition at 1000.92 g/ha (Yellow Nutsedge; 0.893 lb/A) | inhibition at 7.95803 g/ha (Cocklebur; 0.0071 lb/A) | inhibition at 200.072 g/ha (Cocklebur; 0.1785 lb/A) | inhibition at 7.95803 g/ha (Barnyardgrass [8]; 0.0071 lb/A) | inhibition at 7.95803 g/ha (Soybean [9]; 0.0071 lb/A) | inhibition at 40.0143 g/ha (Soybean [9]; 0.0357 lb/A) | inhibition at 200.072 g/ha (Soybean [9]; 0.1785 lb/A) | inhibition at 7.95803 g/ha (Morning Glory [10]; 0.0071 lb/A) | inhibition at 7.95803 g/ha (Rice; 0.0071 lb/A) | inhibition at 40.0143 g/ha (Rice; 0.0357 lb/A) | inhibition at 200.072 g/ha (Rice; 0.1785 lb/A)
25%: inhibition at 200.072 g/ha (Blackgrass; Table 5a) | inhibition at 40.0143 g/ha (Soybean [4]; 0.0357 lb/A)
